Data taken from patent US6399319B1, “Protein kinase assay as a method for identification of fungicides” (Syngenta Crop Protection, Inc., priority 1996, dated 2002).

Key:
[1] = test system: protein kinase PK-III; test: Protein kinase inhibition assay, PK-III fraction (protamine-sulfate, [γ-33P]ATP); assay type: biochemical, Neurospora crassa; settings: 100 μM in the enzyme assay mixture; protamine-sulfate as substrate; relative to DMSO control (=0% inhibition)
Protocol: (§1) Mycelium from a stock culture of the wild-type strain 74-OR8-1, obtained from the American Type Culture Collection (ATCC 18889), is grown as inoculum in Petri dishes (d=9 cm) at 24° C. in the dark for 14 days (medium: Biomalt 10 g, Difco dry yeast extract 4 g, glucose 4 g and agar 20 g, in 1 l water). […]
(§2) Protein kinase activity is assayed in a reaction mixture containing in a final volume of […], 20 mM Tris-HCl (pH 7.4), 20 mg protamine-sulfate, 10 mM Mg(NO3)2, 10 mM ATP (0.2 mCi [g-^33P]ATP), 1 mM NaN3, 0.04 mM okadaic acid, […] of protein kinase. After 20 minutes incubation at 32° C., aliquots of […] are analyzed for substrate phosphorylation using P81 chromatography paper (20 mm×20 mm; Whatman, Maidstone, UK) according to the method described by J. J. Witt and R. Roskoski (Anal. Biochem., 66, 253-258, 1975). After washing the unbounded radioactivity with 75 mM phosphoric acid (3×15 min) and ethanol 94% (1×5 min) the radioactivity in the chromatography paper is counted in 5 ml ULTIMA GOLD LSC-cocktail (Packard Instrument, Zürich, Switzerland) using a Tri-Carb 2500 TR Packard Instrument. […]

[2] = test system: protein kinase PK-II; test: Protein kinase inhibition assay, PK-II fraction (protamine-sulfate, [γ-33P]ATP); assay type: biochemical, Neurospora crassa; settings: 100 μM in the enzyme assay mixture; protamine-sulfate as substrate; relative to DMSO control (=0% inhibition)
Protocol: as §1, §2

Structure (SMILES): N#Cc1c[nH]cc1-c1cccc(Cl)c1Cl [fenpiclonil, 4-(2,3-dichlorophenyl)pyrrole-3-carbonitrile]
- inhibition of protein kinase PK-III [1]: 90%
- inhibition of protein kinase PK-II [2]: 67%
